“And” between values parts separate entries of the source, which are not always exact repeats. Identical values can stand only once. Records with an inconclusive call do not appear.
Tested on: CD8F1 mice, subcutaneous mammary adenocarcinoma, T/C%
Test: NCI In Vivo Anticancer Drug Screen. Data for tumor model Mammary Adenocarcinoma CD8F1 (subcutaneous) in CD8F1
Details: higher = larger tumour
Procedure, shortened: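 Antitumor activity is assessed in transplantable-tumor mice by comparing the treated group with a vehicle-treated control group. Survival or tumor size serves as the measure, reported as T divided by C.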

[1] = endpoint: median tumor weight (est.), dose: 12.5 mg/kg/injection, schedule: Q07DX005 (ip), vehicle: saline
[2] = endpoint: median tumor weight (est.), dose: 50.0 mg/kg/injection, schedule: Q07DX005 (ip), vehicle: saline
[3] = endpoint: median tumor weight change, dose: 125.0 mg/kg/injection, schedule: Q01DX001 (ip), vehicle: saline with Tween-80
[4] = endpoint: median tumor weight change, dose: 250.0 mg/kg/injection, schedule: Q01DX001 (ip), vehicle: saline with Tween-80
[5] = endpoint: median tumor weight change, dose: 500.0 mg/kg/injection, schedule: Q01DX001 (ip), vehicle: saline with Tween-80
[6] = endpoint: median tumor weight (est.), dose: 6.25 mg/kg/injection, schedule: Q07DX005 (ip), vehicle: saline
[7] = endpoint: median tumor weight (est.), dose: 25.0 mg/kg/injection, schedule: Q07DX005 (ip), vehicle: suspension in saline
[8] = endpoint: median tumor weight (est.), dose: 50.0 mg/kg/injection, schedule: Q07DX005 (ip), vehicle: suspension in saline
[9] = endpoint: median tumor weight (est.), dose: 100.0 mg/kg/injection, schedule: Q07DX005 (ip), vehicle: suspension in saline
[10] = endpoint: median tumor weight change, dose: 37.5 mg/kg/injection, schedule: Q01DX001 (ip), vehicle: Klucel (hydroxypropylcellulose) (HPC)
[11] = endpoint: median tumor weight change, dose: 75.0 mg/kg/injection, schedule: Q01DX001 (ip), vehicle: Klucel (hydroxypropylcellulose) (HPC)

In the case of `C/C=C/C=C/c1cc2cc3c(c(O)c2c(=O)[nH]1)C1(CC3)C(O)=c2c(=O)c3c(=O)cc(OC)c(=O)c=3c(=O)c2=C1O` (stereo not drawn), the T/C (endpoint: median tumor weight change, dose: 2.5 mg/kg/injection, schedule: Q01DX001 (ip), vehicle: DMSO) is reported as 106 % of control and the T/C (endpoint: median tumor weight change, dose: 5.0 mg/kg/injection, schedule: Q01DX001 (ip), vehicle: DMSO) is reported as 79 % of control.
`Nc1nc(N)c2c(ccc3c2ccn3Cc2cccc([N+](=O)[O-])c2)n1` was tested, and the T/C (endpoint: median tumor weight change, dose: 7.75 mg/kg/injection, schedule: Q01DX001 (ip), vehicle: saline with Tween-80) was 66 % of control, the T/C (endpoint: median tumor weight change, dose: 8.0 mg/kg/injection, schedule: Q01DX001 (ip), vehicle: saline with Tween-80) was 56 % of control and the T/C (endpoint: median tumor weight change, dose: 16.0 mg/kg/injection, schedule: Q01DX001 (ip), vehicle: saline with Tween-80) was 67 % of control.
For `OCC1OC(n2cnc3c2nnn2ccnc32)C(O)C1O` (stereo not drawn), the T/C (endpoint: mean tumor weight, dose: 37.5 mg/kg/injection, schedule: Q07DX005 (ip), vehicle: saline) was 93 % of control and 94 % of control, the T/C (endpoint: mean tumor weight, dose: 75.0 mg/kg/injection, schedule: Q07DX005 (ip), vehicle: saline) was 202 % of control and 91 % of control and the T/C (endpoint: mean tumor weight, dose: 150.0 mg/kg/injection, schedule: Q07DX005 (ip), vehicle: saline) was 103 % of control and 118 % of control.
`COc1cc(C[C@H]2c3cc(OC)c(OC)cc3CCN2C)c(Oc2cc3c(cc2OC)-c2c(OC)c(OC)cc4c2[C@H](C3)N(C)CC4)cc1OC` was tested, and the T/C [1] was 118 % of control, the T/C [2] was 95 % of control and the T/C (endpoint: median tumor weight (est.), dose: 200.0 mg/kg/injection, schedule: Q07DX005 (ip), vehicle: saline) was 52 % of control. For the same molecule, the T/C (endpoint: median tumor weight (est.), dose: 400.0 mg/kg/injection, schedule: Q07DX005 (ip), vehicle: saline) was 67 % of control.
For `Nc1ccc(S(=O)(=O)c2ccc(N)cc2)cc1`, the T/C (endpoint: median tumor weight change, dose: 31.25 mg/kg/injection, schedule: Q01DX001 (ip), vehicle: saline with Tween-80) was 106 % of control, the T/C (endpoint: median tumor weight change, dose: 62.5 mg/kg/injection, schedule: Q01DX001 (ip), vehicle: saline with Tween-80) was 92 % of control and the T/C [3] was 87 % of control. The T/C [4] was 88 % of control and the T/C [5] was 80 % of control.
`C[n+]1c2cc(N)ccc2cc2ccc(N)cc21` was tested, and the T/C [6] was 104 % of control and the T/C [1] was 211 % of control.
With `O=c1ncccn1[C@@H]1O[C@H](CO)[C@H](O)C1O` (stereo partly drawn) the T/C (endpoint: median tumor weight change, dose: 1000.0 mg/kg/injection, schedule: Q01DX001 (ip), vehicle: saline) was 78 % of control and 89 % of control and the T/C (endpoint: median tumor weight change, dose: 2000.0 mg/kg/injection, schedule: Q01DX001 (ip), vehicle: saline) was 95 % of control and 103 % of control.
`CCCCCCCC(=O)N/N=C(\CO)[C@]1(O)Cc2c(O)c3c(c(O)c2[C@@H](OC2CC(N)C(O)C(C)O2)C1)C(=O)c1c(OC)cccc1C3=O` (stereo partly drawn) was tested, and the T/C (endpoint: median tumor weight (est.), dose: 1.5 mg/kg/injection, schedule: Q07DX005 (ip), vehicle: saline) was 76 % of control, the T/C (endpoint: median tumor weight (est.), dose: 3.0 mg/kg/injection, schedule: Q07DX005 (ip), vehicle: saline) was 110 % of control and the T/C (endpoint: median tumor weight (est.), dose: 6.0 mg/kg/injection, schedule: Q07DX005 (ip), vehicle: saline) was 37 % of control. The T/C (endpoint: median tumor weight (est.), dose: 12.0 mg/kg/injection, schedule: Q07DX005 (ip), vehicle: saline) was 4 % of control.
With `COc1cc(C)c2c(c1C=O)Oc1c(c(C)c(O)c3c1C(O)OC3=O)OC2=O` (stereo not drawn) the T/C (endpoint: mean tumor weight, dose: 3.12 mg/kg/injection, schedule: Q07DX005 (ip), vehicle: saline) was 42 % of control, the T/C (endpoint: mean tumor weight, dose: 6.25 mg/kg/injection, schedule: Q07DX005 (ip), vehicle: saline) was 49 % of control and the T/C (endpoint: mean tumor weight, dose: 25.0 mg/kg/injection, schedule: Q07DX005 (ip), vehicle: saline) was 168 % of control. The T/C (endpoint: mean tumor weight, dose: 50.0 mg/kg/injection, schedule: Q07DX005 (ip), vehicle: saline) was 61 % of control, the T/C (endpoint: median tumor weight (est.), dose: 3.12 mg/kg/injection, schedule: Q07DX005 (ip), vehicle: saline) was 97 % of control and the T/C (endpoint: median tumor weight (est.), dose: 3.12 mg/kg/injection, schedule: Q07DX005 (ip), vehicle: suspension in saline) was 89 % of control. The T/C [6] was 114 % of control, the T/C (endpoint: median tumor weight (est.), dose: 6.25 mg/kg/injection, schedule: Q07DX005 (ip), vehicle: suspension in saline) was 104 % of control and the T/C (endpoint: median tumor weight (est.), dose: 12.5 mg/kg/injection, schedule: Q07DX005 (ip), vehicle: suspension in saline) was 94 % of control. For the same molecule, the T/C (endpoint: median tumor weight (est.), dose: 25.0 mg/kg/injection, schedule: Q07DX005 (ip), vehicle: saline) was 75 % of control, the T/C [7] was 96 % of control and the T/C [2] was 96 % of control. The T/C [8] was 88 % of control and the T/C [9] was 90 % of control.
With `COC1C(OC(=O)/C=C/C=C/C=C/C=C/C(=O)O)CCC2(CO2)C1C1(C)OC1CC=C(C)C` (stereo not drawn) the T/C [7] was 102 % of control, the T/C [8] was 106 % of control and the T/C [9] was 91 % of control. The T/C (endpoint: median tumor weight (est.), dose: 200.0 mg/kg/injection, schedule: Q07DX005 (ip), vehicle: suspension in saline) was 94 % of control, the T/C (endpoint: median tumor weight change, dose: 125.0 mg/kg/injection, schedule: Q01DX001 (ip), vehicle: suspension in saline) was 85 % of control and the T/C (endpoint: median tumor weight change, dose: 250.0 mg/kg/injection, schedule: Q01DX001 (ip), vehicle: suspension in saline) was 56 % of control. For the same molecule, the T/C (endpoint: median tumor weight change, dose: 500.0 mg/kg/injection, schedule: Q01DX001 (ip), vehicle: suspension in saline) was 58 % of control.
In the case of `O=C1c2ccccc2C(=O)c2c3c(cc(NCCNCCO)c21)N(CCO)CCN3`, the T/C [3] is reported as 97 % of control, the T/C [4] is reported as 91 % of control and the T/C [5] is reported as 77 % of control.
For `CC(=O)c1cccc(NC2C(N)C(NC(=O)N(C)C)(C(C)O)C(C)(O)C2(O)COC(=O)c2c(C)cccc2O)c1` (stereo not drawn), the T/C (endpoint: median tumor weight (est.), dose: 1.0 mg/kg/injection, schedule: Q07DX005 (ip), vehicle: suspension in saline) was 162 % of control, the T/C (endpoint: median tumor weight (est.), dose: 1.8 mg/kg/injection, schedule: Q07DX005 (ip), vehicle: saline with Tween-80) was 67 % of control and 77 % of control and the T/C (endpoint: median tumor weight (est.), dose: 2.0 mg/kg/injection, schedule: Q07DX005 (ip), vehicle: suspension in saline) was 78 % of control. The T/C (endpoint: median tumor weight (est.), dose: 3.6 mg/kg/injection, schedule: Q07DX005 (ip), vehicle: saline with Tween-80) was 72 % of control and 93 % of control, the T/C (endpoint: median tumor weight (est.), dose: 4.0 mg/kg/injection, schedule: Q07DX005 (ip), vehicle: suspension in saline) was 78 % of control and the T/C (endpoint: median tumor weight (est.), dose: 7.2 mg/kg/injection, schedule: Q07DX005 (ip), vehicle: saline with Tween-80) was 55 % of control and 78 % of control. The T/C (endpoint: median tumor weight (est.), dose: 8.0 mg/kg/injection, schedule: Q07DX005 (ip), vehicle: suspension in saline) was 119 % of control and the T/C (endpoint: median tumor weight (est.), dose: 14.4 mg/kg/injection, schedule: Q07DX005 (ip), vehicle: saline with Tween-80) was 23 % of control and 44 % of control.
For `Nc1ncnc2c1ccn2C1OC(CO)C(O)C1O` (stereo not drawn), the T/C (endpoint: mean tumor weight, dose: 0.25 mg/kg/injection, schedule: Q01DX009 (ip), vehicle: saline) was 162 % of control, the T/C (endpoint: mean tumor weight, dose: 0.5 mg/kg/injection, schedule: Q01DX009 (ip), vehicle: saline) was 98 % of control and the T/C (endpoint: mean tumor weight, dose: 1.0 mg/kg/injection, schedule: Q01DX009 (ip), vehicle: saline) was 114 % of control. For the same molecule, the T/C (endpoint: mean tumor weight, dose: 1.0 mg/kg/injection, schedule: Q07DX005 (ip), vehicle: saline) was 117 % of control, the T/C (endpoint: mean tumor weight, dose: 4.0 mg/kg/injection, schedule: Q07DX005 (ip), vehicle: saline) was 361 % of control and the T/C (endpoint: median tumor weight (est.), dose: 0.5 mg/kg/injection, schedule: Q07DX005 (ip), vehicle: Klucel (hydroxypropylcellulose) (HPC)) was 195 % of control. The T/C (endpoint: median tumor weight (est.), dose: 8.0 mg/kg/injection, schedule: Q07DX005 (ip), vehicle: Klucel (hydroxypropylcellulose) (HPC)) was 114 % of control.
`COC(=O)C[C@](O)(CCC(C)(C)O)C(=O)O[C@@H]1C(OC)=C[C@]23CCCN2CCc2cc4c(cc2[C@H]13)OCO4` was tested, and the T/C (endpoint: median tumor weight change, dose: 1.25 mg/kg/injection, schedule: Q01DX001 (ip), vehicle: saline) was 80 % of control and 96 % of control, the T/C (endpoint: median tumor weight change, dose: 2.5 mg/kg/injection, schedule: Q01DX001 (ip), vehicle: saline) was 89 % of control and 94 % of control and the T/C (endpoint: median tumor weight change, dose: 10.0 mg/kg/injection, schedule: Q01DX001 (ip), vehicle: saline) was 68 % of control.
`C=C1C(=O)C2=CC1CCC(=O)C1(C)CCC(OC(C)=O)C(C)(C)C1CC2O` (stereo not drawn) was tested, and the T/C [10] was 83 % of control, the T/C [11] was 88 % of control and the T/C (endpoint: median tumor weight change, dose: 150.0 mg/kg/injection, schedule: Q01DX001 (ip), vehicle: Klucel (hydroxypropylcellulose) (HPC)) was 30 % of control.
With `C[C@@]1(CO)[C@H](O)CC[C@@]2(C)[C@H]1CC[C@H]1C[C@@H]3C[C@@]12CC[C@@]3(O)COC(=O)CN` the T/C (endpoint: median tumor weight change, dose: 9.88 mg/kg/injection, schedule: Q01DX001 (ip), vehicle: Klucel (hydroxypropylcellulose) (HPC)) was 78 % of control, the T/C (endpoint: median tumor weight change, dose: 18.75 mg/kg/injection, schedule: Q01DX001 (ip), vehicle: Klucel (hydroxypropylcellulose) (HPC)) was 68 % of control and the T/C [10] was 98 % of control. For the same molecule, the T/C [11] was 84 % of control, the T/C (endpoint: median tumor weight change, dose: 62.5 micrograms/kg/injection, schedule: Q01DX001 (ip), vehicle: saline + alcohol) was 170 % of control and the T/C (endpoint: median tumor weight change, dose: 125.0 micrograms/kg/injection, schedule: Q01DX001 (ip), vehicle: saline + alcohol) was 90 % of control. For the same molecule, the T/C (endpoint: median tumor weight change, dose: 250.0 micrograms/kg/injection, schedule: Q01DX001 (ip), vehicle: saline + alcohol) was 115 % of control and the T/C (endpoint: median tumor weight change, dose: 1000.0 micrograms/kg/injection, schedule: Q01DX001 (ip), vehicle: saline + alcohol) was 106 % of control.

Reference: PubChem BioAssay AID220 (DTP/NCI, 2004)
